Reference: patent US8299093B2, “Small molecule inhibitors of retroviral assembly and maturation” (New York Blood Center, Inc., priority 2008, dated 2012)
Read-outs that look alike come from different tables or passages of the source.

Legend:
[1] = test system: HIV-1; test: Inhibition of HIV-1 infectivity (p24 ELISA) in MT-2 cells, laboratory-adapted HIV-1 strains; format: cell-based; conditions: Human immunodeficiency virus 1, MT2, 96 h, MT-2 cells, p24 ELISA day 4
Procedure: AZT was used as a positive control in the infectivity assays. In brief, 1×10^4 MT-2 cells (lymphocytes) were infected with HIV-1 at 100 TCID50 (50% tissue culture infective dose, 0.01 MOI [multiplicity of infection]) in 200 μL RPMI 1640 medium containing 10% FBS in the presence or absence of small molecules at graded concentrations overnight. The culture supernatants were then removed and fresh media containing freshly prepared test compounds were added. On the fourth day post-infection, 100 μL of culture supernatants were collected from each well, mixed with equal volume of 5% TRITON X-100® and tested for p24 antigen by ELISA®.

[2] = XTT cytotoxicity assay in MT-2 cells; format: cell-based; conditions: human, cell type not given
Procedure: Briefly, for MT-2 cells, 100 μL of small molecule at graded concentrations was added to an equal volume of cells (5×10^4 cells/ml) in 96-well plates followed by incubation at 37° C. for 4 days, which ran parallel to the neutralization assay in MT-2 (except medium was added instead of virus). In the case of PBMC, 2.5×10^5 cells/mL were used and the cytotoxicity was measured after 7 days. After addition of XTT (PolySciences, Inc.), the soluble intracellular formazan was quantitated calorimetrically at 450 nm 4 hours later with a reference at 620 nm. The CC50 values were calculated.

[3] = read-out: IC50 (concentration that provides 50% inhibition of HIV-1 p24), Table 1, formula I
[4] = Table 1, formula I, read-out: CC50 (concentration that causes 50% cytotoxicity)
[5] = Table 2, formula II, read-out: CC50

SMILES	IC50 [1, 3]	CC50 [2, 4]	IC50 ([1]; Table 2, formula II)	CC50 [2, 5]
COc1ccc2cc(CN(Cc3ccc4c(c3)OCO4)C(=S)Nc3ccc(C)cc3)c(=O)[nH]c2c1 [NYAD-S2]	> 10 µM	> 10 µM		
CCc1ccc2[nH]c(=O)c(CN(Cc3cccnc3)C(=S)NCC3CCCO3)cc2c1 (stereo not drawn) [NYAD-S3]	> 10 µM	> 10 µM		
Cc1cc(C)c2[nH]c(=O)c(CN(CCO)C(=S)Nc3ccc(F)cc3)cc2c1 [NYAD-S4]	> 10 µM	> 10 µM		
COc1ccc2[nH]c(=O)c(CN(Cc3cccnc3)C(=S)Nc3ccc(F)cc3)cc2c1 [NYAD-S5]	> 10 µM	> 10 µM		
Cc1ccc2[nH]c(=O)c(CN(Cc3ccco3)S(=O)(=O)c3ccc(Cl)cc3)cc2c1 [NYAD-S6-4]	< 10 µM	> 10 µM		
Cc1ccc2[nH]c(=O)c(CN(Cc3ccco3)C(=O)c3ccc(Cl)c(Cl)c3)cc2c1 [NYAD-S6-6]	< 10 µM	> 10 µM		
Cc1ccc2[nH]c(=O)c(CN(Cc3ccco3)C(=O)c3ccc(Cl)c(N4CCCCC4)c3)cc2c1 [NYAD-S6-8]	< 10 µM	> 10 µM		
Cc1ccc2[nH]c(=O)c(CN(Cc3ccco3)C(=O)c3ccc(F)c(Cl)c3)cc2c1 [NYAD-S6-10]	< 10 µM	> 10 µM		
Cc1ccc2[nH]c(=O)c(CN(Cc3ccco3)C(=O)c3ccc(F)c(C)c3)cc2c1 [NYAD-S6-19]	< 10 µM	> 10 µM		
Cc1ccc2[nH]c(=O)c(CN(Cc3ccco3)C(=O)c3ccc(F)c(F)c3)cc2c1 [NYAD-S6-21]	< 10 µM	> 10 µM		
Cc1cc(=O)n2c3ccccc3n(CC(O)CN3CCCC3)c2c1C#N (stereo not drawn) [NYAD-S9]			> 10 µM	> 10 µM
Cc1cc(=O)n2c3ccccc3n(CC(O)CNc3ccccc3)c2c1C#N (stereo not drawn) [NYAD-S10]			> 10 µM	> 10 µM
Cc1cc(=O)n2c3ccccc3n(CC(O)CN3CCCCC3)c2c1C#N (stereo not drawn) [NYAD-S12]			> 10 µM	> 10 µM
Cc1cc(=O)n2c3ccccc3n(CC(O)CN3CCOCC3)c2c1C#N (stereo not drawn) [NYAD-S13]			> 10 µM	> 10 µM
Cc1ccccc1N1CCN(CC(O)Cn2c3ccccc3n3c(=O)cc(C)c(C#N)c23)CC1 (stereo not drawn) [NYAD-S14]			> 10 µM	> 10 µM
Cc1cc(=O)n2c3ccccc3n(CC(O)Cn3ccnc3)c2c1C#N (stereo not drawn) [NYAD-S15]			> 10 µM	> 10 µM
Cc1cc(=O)n2c3ccccc3n(CC(O)CN3CCN(CCOc4ccc(Cl)cc4)CC3)c2c1C#N (stereo not drawn) [NYAD-S16]			< 10 µM	> 10 µM
Cc1cc(=O)n2c3ccccc3n(CC(O)CN3CCN(CCO)CC3)c2c1C#N (stereo not drawn) [NYAD-S18]			> 10 µM	> 10 µM
COc1ccc(CCNCC(O)Cn2c3ccccc3n3c(=O)cc(C)c(C#N)c23)cc1OC (stereo not drawn) [NYAD-S19]			> 10 µM	> 10 µM
CCC(=O)N(Cc1ccco1)Cc1cc2cc(C)ccc2[nH]c1=O [NYAD-S20]	> 10 µM	> 10 µM		
Cc1cccc2cc(CN(Cc3ccco3)C(=O)c3ccccc3)c(=O)[nH]c12 [NYAD-S21]	< 10 µM	> 10 µM		
Cc1cccc2cc(CN(Cc3ccccc3)C(=O)c3ccco3)c(=O)[nH]c12 [NYAD-S22]	> 10 µM	> 10 µM		
Cc1cccc2cc(CN(Cc3ccco3)C(=O)c3ccc(C(C)(C)C)cc3)c(=O)[nH]c12 [NYAD-S23]	> 10 µM	> 10 µM		
CCOc1ccc(C(=O)N(Cc2ccco2)Cc2cc3ccc(C)cc3[nH]c2=O)cc1 [NYAD-S24]	> 10 µM	> 10 µM		
Cc1cccc2cc(CN(Cc3ccco3)C(=O)c3cccs3)c(O)nc12 [NYAD-S25]	> 10 µM	> 10 µM		
Cc1cccc(C(=O)N(Cc2ccco2)Cc2cc3cccc(C)c3[nH]c2=O)c1 [NYAD-S26]	> 10 µM	> 10 µM		
Cc1ccc2cc(CN(Cc3ccco3)C(=O)c3ccccc3)c(=O)[nH]c2c1 [NYAD-S27]	> 10 µM	> 10 µM		

SMILES	IC50 [1, 3]	CC50 [2, 4]	IC50 ([1]; Table 2, formula II)	CC50 [2, 5]
Cc1ccc2cc(CN(Cc3ccco3)C(=O)c3ccc(F)cc3)c(=O)[nH]c2c1 [NYAD-S28]	> 10 µM	> 10 µM		
COc1ccccc1C(=O)N(Cc1ccco1)Cc1cc2ccc(C)cc2[nH]c1=O [NYAD-S29]	> 10 µM	> 10 µM		
Cc1cccc2cc(CN(Cc3ccco3)C(=O)c3cccnc3)c(=O)[nH]c12 [NYAD-S30]	> 10 µM	> 10 µM		
Cc1ccccc1C(=O)N(Cc1ccco1)Cc1cc2cccc(C)c2[nH]c1=O [NYAD-S31]	> 10 µM	> 10 µM		
Cc1cccc2cc(CN(Cc3ccco3)C(=O)c3ccccc3F)c(=O)[nH]c12 [NYAD-S32]	> 10 µM	> 10 µM		
Cc1cccc2cc(CN(Cc3ccco3)C(=O)c3ccc(F)cc3)c(=O)[nH]c12 [NYAD-S33]	> 10 µM	> 10 µM		
Cc1ccc2cc(CN(Cc3ccco3)C(=O)c3ccccc3F)c(=O)[nH]c2c1 [NYAD-S34]	> 10 µM	> 10 µM		
Cc1cccc2cc(CN(Cc3ccccc3)C(=O)c3cccc(Cl)c3)c(=O)[nH]c12 [NYAD-S35]	> 10 µM	> 10 µM		
Cc1ccc2[nH]c(=O)c(CN(Cc3ccco3)C(=O)c3ccc(Br)cc3)cc2c1 [NYAD-S36]	< 10 µM	> 10 µM		
Cc1ccc2[nH]c(=O)c(CN(Cc3ccccc3)C(=O)c3ccco3)cc2c1 [NYAD-S37]	< 10 µM	> 10 µM		
Cc1cccc(C(=O)N(Cc2ccco2)Cc2cc3ccc(C)cc3[nH]c2=O)c1 [NYAD-S40]	> 10 µM	> 10 µM		
COc1ccc(C(=O)N(Cc2ccco2)Cc2cc3cc(C)ccc3[nH]c2=O)cc1OC [NYAD-S41]	> 10 µM	> 10 µM		
Cc1ccc2[nH]c(=O)c(CN(CC3CCCO3)C(=O)c3ccco3)cc2c1 (stereo not drawn) [NYAD-S42]	> 10 µM	> 10 µM		
Cc1cc2cc(CN(Cc3ccco3)C(=O)C3CCCCC3)c(=O)[nH]c2cc1C [NYAD-S43]	> 10 µM	> 10 µM		
Cc1ccc2[nH]c(=O)c(CN(Cc3ccco3)C(=O)c3cccs3)cc2c1 [NYAD-S44]	> 10 µM	> 10 µM		
Cc1ccc2[nH]c(=O)c(CN(Cc3ccco3)C(=O)c3ccccc3)cc2c1 [NYAD-S45]	< 10 µM	> 10 µM		
Cc1ccc2[nH]c(=O)c(CN(Cc3cccnc3)C(=O)c3ccco3)cc2c1 [NYAD-S46]	> 10 µM	> 10 µM		
Cc1ccc2cc(CN(CC3CCCO3)C(=O)c3ccco3)c(=O)[nH]c2c1C (stereo not drawn) [NYAD-S47]	> 10 µM	> 10 µM		
Cc1ccc2cc(CN(Cc3ccccc3)C(=O)c3ccco3)c(=O)[nH]c2c1C [NYAD-S48]	> 10 µM	> 10 µM		
Cc1ccc2[nH]c(=O)c(CN(Cc3ccco3)C(=O)c3ccccc3F)cc2c1 [NYAD-S49]	> 10 µM	> 10 µM		
Cc1cccc(C(=O)N(Cc2ccco2)Cc2cc3cc(C)ccc3[nH]c2=O)c1 [NYAD-S50]	> 10 µM	> 10 µM		
Cc1cccc2cc(CN(Cc3ccco3)C(=O)N3CCOCC3)c(=O)[nH]c12 [NYAD-S51]	> 10 µM	> 10 µM		
Cc1ccc(NCC(O)Cn2c3ccccc3n3c(=O)cc(C)c(C#N)c23)cc1 (stereo not drawn) [NYAD-S52]			> 10 µM	> 10 µM
COc1ccc(NCC(O)Cn2c3ccccc3n3c(=O)cc(C)c(C#N)c23)cc1 (stereo not drawn) [NYAD-S53]			> 10 µM	> 10 µM
CCC1CCCCN1CC(O)Cn1c2ccccc2n2c(=O)cc(C)c(C#N)c12 (stereo not drawn) [NYAD-S54]			> 10 µM	> 10 µM
Cc1ccc(NCC(O)Cn2c3ccccc3n3c(=O)cc(C)c(C#N)c23)cc1C (stereo not drawn) [NYAD-S55]			> 10 µM	> 10 µM
CCOc1ccc(NCC(O)Cn2c3ccccc3n3c(=O)cc(C)c(C#N)c23)cc1 (stereo not drawn) [NYAD-S56]			> 10 µM	> 10 µM
